Data published in ChEMBL document CHEMBL1201862, “PubChem BioAssay data set” (2004).
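Assay format: 96-well plates, 48-hour exposure. GI50: concentration for 50% inhibition of growth.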 The source made the active and inactive calls. Rule as the data show it: active = GI50 up to about 1.1 µM and inactive = higher.

How the values were obtained:
Test in all cases: inhibition of tumour cell growth, NCI panel, 48 h
MOLT-4 = tested on: MOLT-4
UACC-62 = tested on: UACC-62
Malme-3M = tested on: Malme-3M
RPMI-8226 = tested on: RPMI-8226
SK-MEL-28 = tested on: SK-MEL-28
COLO 205 = tested on: COLO 205
NCI-H226 = tested on: NCI-H226
DLD-1 = tested on: DLD-1
SF-295 = tested on: SF-295
TK-10 = tested on: TK-10
SNB-78 = tested on: SNB-78
EKVX = tested on: EKVX
IGROV-1 = tested on: IGROV-1
HL-60 = tested on: HL-60
HCC 2998 = tested on: HCC 2998
SK-OV-3 = tested on: SK-OV-3
LXFL 529 = tested on: LXFL 529
HOP-18 = tested on: HOP-18
SK-MEL-5 = tested on: SK-MEL-5
SN12C = tested on: SN12C
DMS-114 = tested on: DMS-114
OVCAR-3 = tested on: OVCAR-3
NCI-H23 = tested on: NCI-H23
K562 = tested on: K562
HOP-92 = tested on: HOP-92
HT-29 = tested on: HT-29
U-251 = tested on: U-251
UO-31 = tested on: UO-31
CAKI-1 = tested on: CAKI-1
UACC-257 = tested on: UACC-257
DMS-273 = tested on: DMS-273
A498 = tested on: A498
NCI-H460 = tested on: NCI-H460
RXF 393 = tested on: RXF 393
SNB-19 = tested on: SNB-19
786-0 = tested on: 786-0
LOX IMVI = tested on: LOX IMVI
CCRF-CEM = tested on: CCRF-CEM
KM12 = tested on: KM12
SNB-75 = tested on: SNB-75
HCT-116 = tested on: HCT-116
M14 = tested on: M14
ACHN = tested on: ACHN
NCI-H522 = tested on: NCI-H522
HCT-15 = tested on: HCT-15
SF-539 = tested on: SF-539
SW-620 = tested on: SW-620
A549 = tested on: A549
RXF 631 = tested on: RXF 631
OVCAR-8 = tested on: OVCAR-8
SF-268 = tested on: SF-268
OVCAR-4 = tested on: OVCAR-4
SK-MEL-2 = tested on: SK-MEL-2
OVCAR-5 = tested on: OVCAR-5
HOP-62 = tested on: HOP-62
KM-20L2 = tested on: KM-20L2

With `NC(CCc1ncc(-c2ccccc2)s1)C(=O)O` (stereo unspecified) the GI50 (MOLT-4) was > 100 µM (inactive), the GI50 (UACC-62) was > 100 µM (inactive) and the GI50 (Malme-3M) was > 100 µM (inactive). The GI50 (RPMI-8226) was > 100 µM (inactive), the GI50 (SK-MEL-28) was > 100 µM (inactive) and the GI50 (COLO 205) was > 100 µM (inactive). The GI50 (NCI-H226) was 17.4 µM (inactive), the GI50 (DLD-1) was > 100 µM (inactive) and the GI50 (SF-295) was > 100 µM (inactive). For the same compound, the GI50 (TK-10) was > 100 µM (inactive), the GI50 (SNB-78) was > 100 µM (inactive) and the GI50 (EKVX) was > 100 µM (inactive). For the same compound, the GI50 (IGROV-1) was > 100 µM (inactive), the GI50 (HL-60) was > 100 µM (inactive) and the GI50 (HCC 2998) was > 100 µM (inactive). The GI50 (SK-OV-3) was > 100 µM (inactive), the GI50 (LXFL 529) was > 100 µM (inactive) and the GI50 (HOP-18) was > 100 µM (inactive). For the same compound, the GI50 (SK-MEL-5) was > 100 µM (inactive), the GI50 (SN12C) was > 100 µM (inactive) and the GI50 (DMS-114) was > 100 µM (inactive). For the same compound, the GI50 (OVCAR-3) was > 100 µM (inactive), the GI50 (NCI-H23) was > 100 µM (inactive) and the GI50 (K562) was > 100 µM (inactive). The GI50 (HOP-92) was > 100 µM (inactive), the GI50 (HT-29) was > 100 µM (inactive) and the GI50 (U-251) was > 100 µM (inactive). For the same compound, the GI50 (UO-31) was 45.3 µM (inactive), the GI50 (CAKI-1) was > 100 µM (inactive) and the GI50 (UACC-257) was > 100 µM (inactive). The GI50 (DMS-273) was > 100 µM (inactive), the GI50 (A498) was > 100 µM (inactive) and the GI50 (NCI-H460) was > 100 µM (inactive). For the same compound, the GI50 (RXF 393) was > 100 µM (inactive), the GI50 (SNB-19) was > 100 µM (inactive) and the GI50 (786-0) was > 100 µM (inactive). For the same compound, the GI50 (LOX IMVI) was > 100 µM (inactive), the GI50 (CCRF-CEM) was > 100 µM (inactive) and the GI50 (KM12) was > 100 µM (inactive). The GI50 (SNB-75) was 85.9 µM (inactive), the GI50 (HCT-116) was > 100 µM (inactive) and the GI50 (M14) was > 100 µM (inactive). The GI50 (ACHN) was > 100 µM (inactive), the GI50 (NCI-H522) was > 100 µM (inactive) and the GI50 (HCT-15) was > 100 µM. For the same compound, the GI50 (SF-539) was > 100 µM (inactive), the GI50 (SW-620) was > 100 µM (inactive) and the GI50 (A549) was > 100 µM (inactive). The GI50 (RXF 631) was > 100 µM (inactive) and the GI50 (OVCAR-8) was > 100 µM (inactive).

`CC(N)C(=O)c1ccc(O)cc1` (stereo unspecified) was tested, and the GI50 (MOLT-4) was > 100 µM (inactive), the GI50 (UACC-62) was > 100 µM (inactive) and the GI50 (SF-268) was > 100 µM (inactive). The GI50 (Malme-3M) was > 100 µM (inactive), the GI50 (RPMI-8226) was > 100 µM (inactive) and the GI50 (OVCAR-4) was > 100 µM (inactive). For the same compound, the GI50 (SK-MEL-28) was > 100 µM (inactive), the GI50 (COLO 205) was > 100 µM (inactive) and the GI50 (NCI-H226) was > 100 µM (inactive). For the same compound, the GI50 (DLD-1) was > 100 µM (inactive), the GI50 (SF-295) was > 100 µM (inactive) and the GI50 (TK-10) was > 100 µM (inactive). The GI50 (SNB-78) was > 100 µM (inactive), the GI50 (EKVX) was > 100 µM (inactive) and the GI50 (IGROV-1) was > 100 µM (inactive). The GI50 (HL-60) was > 100 µM (inactive), the GI50 (HCC 2998) was > 100 µM (inactive) and the GI50 (SK-OV-3) was > 100 µM (inactive). For the same compound, the GI50 (LXFL 529) was > 100 µM (inactive), the GI50 (HOP-18) was > 100 µM (inactive) and the GI50 (SK-MEL-5) was > 100 µM (inactive). The GI50 (SN12C) was > 100 µM (inactive), the GI50 (DMS-114) was > 100 µM (inactive) and the GI50 (OVCAR-3) was > 100 µM (inactive). For the same compound, the GI50 (NCI-H23) was > 100 µM (inactive), the GI50 (K562) was > 100 µM (inactive) and the GI50 (HOP-92) was > 100 µM (inactive). For the same compound, the GI50 (HT-29) was > 100 µM (inactive), the GI50 (U-251) was > 100 µM (inactive) and the GI50 (UO-31) was > 100 µM (inactive). For the same compound, the GI50 (CAKI-1) was > 100 µM (inactive), the GI50 (UACC-257) was > 100 µM (inactive) and the GI50 (DMS-273) was > 100 µM (inactive). The GI50 (A498) was > 100 µM (inactive), the GI50 (NCI-H460) was > 100 µM (inactive) and the GI50 (RXF 393) was > 100 µM (inactive). The GI50 (SNB-19) was > 100 µM (inactive), the GI50 (786-0) was > 100 µM (inactive) and the GI50 (LOX IMVI) was > 100 µM (inactive). The GI50 (CCRF-CEM) was > 100 µM (inactive), the GI50 (KM12) was > 100 µM (inactive) and the GI50 (SNB-75) was > 100 µM (inactive). The GI50 (HCT-116) was > 100 µM (inactive), the GI50 (SK-MEL-2) was > 100 µM (inactive) and the GI50 (M14) was > 100 µM (inactive). For the same compound, the GI50 (ACHN) was > 100 µM (inactive), the GI50 (NCI-H522) was > 100 µM (inactive) and the GI50 (HCT-15) was > 100 µM. For the same compound, the GI50 (SF-539) was > 100 µM (inactive), the GI50 (OVCAR-5) was > 100 µM (inactive) and the GI50 (SW-620) was > 100 µM (inactive). The GI50 (HOP-62) was > 100 µM (inactive), the GI50 (A549) was > 100 µM (inactive) and the GI50 (KM-20L2) was > 100 µM (inactive). The GI50 (RXF 631) was > 100 µM (inactive) and the GI50 (OVCAR-8) was > 100 µM (inactive).
